Here are results for 15 compounds from US12098148B2, “Therapeutic compounds” (C4X Discovery Limited, priority 2018, dated 2024).

Read-outs that look alike come from different tables or passages of the source.

The test system of assay [1] is NQO1 mRNA in BEAS-2B cells. As to the kind of experiment: Beas2B NQO1 mRNA cell based assay. Details: species or system human. The settings on record: 24 h compound treatment, increase in NQO1 mRNA vs vehicle (0.1% DMSO), read-out: EC50. The procedure, abridged: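 BEAS-2B human bronchial epithelial cells exposed to compound for 24 h at 37 °C, 5% CO2. NQO1 mRNA measured by one-step TaqMan RT-qPCR on unpurified lysates, normalized to β-actin; relative expression by ΔΔCT method.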

Assay [2] deals with human KEAP1 (N-term, residues 321-609) (Homo sapiens, UniProt Q14145). The experiment in a line: biochemical.
Protocol: Biological Assays KEAP1 Kelch Fluorescence Polarization (FP) Assay Method
Inhibition of the Kelch domain-NRF2 interaction was determined using a fluorescence polarization-based competition assay in a black 384-well microplate. Compounds were tested at a starting concentration of 10 μM serially diluted 1:3 to generate a 12-point dose response curve on the Biomek FX robot.
After 1 h at room temperature, fluorescence polarization (excitation 470 nm/emission 530 nm) was measured using an Envision plate reader. IC50 values were determined by fitting the data to a four parameter logistic fit using XLfit or XE Runner within ActivityBase.
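Throughout, for IC50: fluorescence polarization competition assay of Kelch domain binding to NRF2, 12-point 1:3 dilution series from 10 µM, read after 1 h at room temperature, floor 10 nM.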

Chain of human KEAP1 (N-term, residues 321-609) (Q14145 321-609): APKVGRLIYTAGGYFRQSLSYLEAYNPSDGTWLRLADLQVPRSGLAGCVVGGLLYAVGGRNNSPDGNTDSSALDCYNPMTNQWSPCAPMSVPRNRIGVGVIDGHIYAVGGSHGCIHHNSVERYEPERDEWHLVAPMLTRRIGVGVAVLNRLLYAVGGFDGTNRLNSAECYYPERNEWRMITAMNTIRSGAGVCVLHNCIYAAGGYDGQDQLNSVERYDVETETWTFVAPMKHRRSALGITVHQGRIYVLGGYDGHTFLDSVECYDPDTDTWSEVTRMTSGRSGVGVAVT

`Cc1cc(C(=O)NCCOc2cccc3c2[C@@H](CN2C(=O)c4ccccc4C2=O)N(C(=O)[C@@H]2CCCC[C@@H]2C(=O)O)CC3)no1` [Example 1, (1S,2R)-2-((S)-1-((1,3-Dioxoisoindolin-2-yl)methyl)-8-(2-(5-methylisoxazole-3-carboxamido)ethoxy)-1,2,3,4-tetrahydroisoquinoline-2-carbonyl)cyclohexanecarboxylic acid]: the EC50 in assay [1] (Homo sapiens, BEAS-2B, 24 h) is 850 nM. In assay [2], the 50% inhibitory concentration (IC50) is 12 nM.
The like results for `CC(C)n1cc(COc2ccc(Br)c3c2[C@@H](CN2Cc4ccccc4C2=O)N(C(=O)[C@@H]2CCCC[C@@H]2C(=O)O)CC3)nn1` [Example 35, (1S,2R)-2-((S)-5-Bromo-8-((1-isopropyl-1H-1,2,3-triazol-4-yl)methoxy)-1-((1-oxoisoindolin-2-yl)methyl)-1,2,3,4-tetrahydroisoquinoline-2-carbonyl)cyclohexane-1-carboxylic acid] were, in that order, 7.5 nM and 9.9 nM.
Taken in the same sequence, the figures for `CC(C)c1nc(COc2ccc(Br)c3c2[C@@H](CN2CCCC2=O)N(C(=O)[C@@H]2CCCC[C@@H]2C(=O)O)CC3)no1` [Example 66, (1S,2R)-2-((S)-5-bromo-8-((5-isopropyl-1,2,4-oxadiazol-3-yl)methoxy)-1-((2-oxopyrrolidin-1-yl)methyl)-1,2,3,4-tetrahydroisoquinoline-2-carbonyl) cyclohexane-1-carboxylic acid] were 27 nM and 5.7 nM.
`CC1(C)CC(COc2ccc(Cl)c3c2[C@@H](CN2CC4(CC4)CC2=O)N(C(=O)[C@@H]2CCCC[C@]2(C)C(=O)O)CC3)=NO1` [Example 136, (1S,2R)-2-((S)-5-chloro-8-((5,5-dimethyl-4,5-dihydroisoxazol-3-yl)methoxy)-1-((6-oxo-5-azaspiro[2.4]heptan-5-yl)methyl)-1,2,3,4-tetrahydroisoquinoline-2-carbonyl)-1-methylcyclohexane-1-carboxylic acid]: the EC50 in assay [1] (Homo sapiens, BEAS-2B, 24 h) amounted to 1700 nM. The compound further yielded an IC50 in assay [2] of 22 nM.
For the compound `Cn1nnc2c1CC(Oc1ccc(Cl)c3c1[C@@H](CN1CC4(CC4)CC1=O)N(C(=O)[C@@H]1CCCC[C@]1(C)C(=O)O)CC3)C2` (single isomer, unassigned; isomer 1) [Example 215], the EC50 in assay [1] came out at 550 nM. In addition, the IC50 in assay [2] is 71 nM.
Consider `C[C@]1(C(=O)O)CCCC[C@H]1C(=O)N1CCc2c(Cl)ccc(OCc3noc4c3CCCC4)c2[C@H]1CN1CCCC1=O` [Example 138, (1S,2R)-2-((S)-5-chloro-1-((2-oxopyrrolidin-1-yl)methyl)-8-((4,5,6,7-tetrahydrobenzo[d]isoxazol-3-yl)methoxy)-1,2,3,4-tetrahydroisoquinoline-2-carbonyl)-1-methylcyclohexane-1-carboxylic acid], for which the EC50 in assay [1] (Homo sapiens, BEAS-2B, 24 h) came to 0.8 nM. In assay [2], this compound returned an IC50 of 7.9 nM.
Turning to `COCCc1c(COc2ccc(Cl)c3c2[C@@H](CN2CCCC2=O)N(C(=O)[C@@H]2CCCC[C@]2(C)C(=O)O)CC3)nnn1C` [Example 128, (1S,2R)-2-((i)-5-chloro-8-((5-(2-methoxyethyl)-1-methyl-1H-1,2,3-triazol-4-yl)methoxy)-1-((2-oxopyrrolidin-1-yl)methyl)-1,2,3,4-tetrahydroisoquinoline-2-carbonyl)-1-methylcyclohexane-1-carboxylic acid], the EC50 in assay [1] (Homo sapiens, BEAS-2B, 24 h) was 1.9 nM. In assay [2], this compound came in with an IC50 of 8.7 nM.
The like results for `Cn1nnc(COc2ccc(Cl)c3c2[C@@H](CN2CCCC2=O)N(C(=O)[C@@H]2CCCC[C@]2(C)C(=O)O)CC3)c1C(F)(F)F` [Example 108, (1S,2R)-2-((S)-5-Chloro-8-((1-methyl-5-(trifluoromethyl)-1H-1,2,3-triazol-4-yl)methoxy)-1-((2-oxopyrrolidin-1-yl)methyl)-1,2,3,4-tetrahydroisoquinoline-2-carbonyl)-1-methylcyclohexane-1-carboxylic acid] were, in that order, 1.5 nM and 5.9 nM.
Taken in the same sequence, the figures for `CC(Oc1ccc(Br)c2c1[C@@H](CN1Cc3ccccc3C1=O)N(C(=O)[C@@H]1CCCC[C@@H]1C(=O)O)CC2)c1cn(C(C)C)nn1` (single isomer, unassigned) [Example 46] were 60 nM and 37 nM.
Taken in the same sequence, the figures for `C[C@]1(C(=O)O)CCCC[C@H]1C(=O)N1CCc2c(Cl)ccc(OCc3noc4c(F)cccc34)c2[C@H]1CN1CCCC1=O` [Example 164, (1S,2R)-2-((S)-5-chloro-8-((7-fluorobenzo[d]isoxazol-3-yl)methoxy)-1-((2-oxopyrrolidin-1-yl)methyl)-1,2,3,4-tetrahydroisoquinoline-2-carbonyl)-1-methylcyclohexane-1-carboxylic acid] were 2.6 nM and 6 nM.
Turning to `COc1cc(COc2ccc(Br)c3c2[C@@H](CN2Cc4ccccc4C2=O)N(C(=O)[C@@H]2CCCC[C@@H]2C(=O)O)CC3)cc2nnn(C)c12` [Example 37, (1S,2R)-2-((S)-5-bromo-8-((7-methoxy-1-methyl-1H-benzo[d][1,2,3]triazol-5-yl)methoxy)-1-((1-oxoisoindolin-2-yl)methyl)-1,2,3,4-tetrahydroisoquinoline-2-carbonyl)cyclohexane-1-carboxylic acid], in assay [1] (Homo sapiens, BEAS-2B, 24 h), the EC50 came out at 44 nM. Also, the half-maximal inhibitory concentration (IC50) in assay [2] turned out to be 13 nM.
Taken in the same sequence, the figures for `O=C(O)[C@H]1CCCC[C@H]1C(=O)N1CCc2c(Cl)ccc(OCc3nccn3CC(F)F)c2[C@H]1CN1Cc2ccccc2C1=O` [Example 52, (1S,2R)-2-((S)-5-chloro-8-((1-(2,2-difluoroethyl)-1H-imidazol-2-yl)methoxy)-1-((1-oxoisoindolin-2-yl)methyl)-1,2,3,4-tetrahydroisoquinoline-2-carbonyl)cyclohexane-1-carboxylic acid] were 140 nM and 13 nM.
Taken in the same sequence, the figures for `O=C(O)[C@H]1CCCC[C@H]1C(=O)N1CCc2cccc(O[C@H]3CCN(C(=O)c4cncs4)C3)c2[C@H]1CN1C(=O)c2ccccc2C1=O` [Example 6, (1S,2R)-2-((S)-1-((1,3-dioxoisoindolin-2-yl)methyl)-8-(((S)-1-(thiazole-5-carbonyl)pyrrolidin-3-yl)oxy)-1,2,3,4-tetrahydroisoquinoline-2-carbonyl)cyclohexane-1-carboxylic acid] were 78 nM and 5.6 nM.
Taken in the same sequence, the figures for `Cn1nnc(COc2ccc(Br)c3c2[C@@H](CN2Cc4ccccc4C2=O)N(C(=O)[C@@H]2CCCC[C@@H]2C(=O)O)CC3)c1C(F)F` [Example 41, (1S,2R)-2-((S)-5-bromo-8-((5-(difluoromethyl)-1-methyl-1H-1,2,3-triazol-4-yl)methoxy)-1-((1-oxoisoindolin-2-yl)methyl)-1,2,3,4-tetrahydroisoquinoline-2-carbonyl)cyclohexane-1-carboxylic acid] were 1.5 nM and 5.2 nM.
`Cn1cnc(COc2ccc(Br)c3c2[C@@H](CN2Cc4ccccc4C2=O)N(C(=O)[C@@H]2CCCC[C@@H]2C(=O)O)CC3)c1` [Example 25, (1S,2R)-2-((S)-5-Bromo-8-((1-methyl-1H-imidazol-4-yl)methoxy)-1-((1-oxoisoindolin-2-yl)methyl)-1,2,3,4-tetrahydroisoquinoline-2-carbonyl)cyclohexane-1-carboxylic acid 2,2,2-trifluoroacetic acid]: the EC50 in assay [1] (Homo sapiens, BEAS-2B, 24 h) is 150 nM. The compound also showed an IC50 in assay [2] of 15 nM.
